The results in this text go back to patent publication US9775877B2, “Combinations with a backbone-cyclized peptide” (POLYPHOR AG, priority 2012, dated 2017).

Non-standard residues stand in square brackets, D forms with d. dDab = NCC[C@@H](N)C(=O)O; Orn = NCCC[C@H](N)C(=O)O; Dab = NCC[C@H](N)C(=O)O

The subject of this test is Pseudomonas aeruginosa clinical isolate PAX11045. Nature of the test: Efficacy in murine pneumonia model, compound 1 in combination with tigecycline (Example 1). In kind it is in vivo. The procedure:
Colony counts in lung were determined at 20 hours post treatment.
Fresh overnight colonies of PAX11045 from a 5% Horse Blood Agar plate were suspended in 0.9% sterile saline to approximately 10^8 CFU/ml and further diluted to approximately […]. Female mice (DBA/2, […], 18-22 g, Chales River) were anesthetized with 0.08 ml of Zoletil and inoculated via the nose with a pipette with 0.1 ml of the bacteria suspension containing approximately 10^6 CFU. 4 hours after inoculation, the mice were treated orally with 45 μl neurophen (20 mg ibuprofen/ml corresponding to approximately 30 mg/kg) as pain relief.
[…] As positive control Ciprofloxacin was used in the same manner with a fixed dose of 20 mg/kg.
Colony counts were determined post inoculation at 4 hours (untreated mice) and 24 hours (treated and vehicle-only treated mice). Immediately after the mice were sacrificed, the lungs were collected and frozen at −20° C. After thawing, the organs were homogenized in 1 ml 0.9% saline. Each sample was then 10 fold diluted in saline and 20 μl spots were applied on blood agar plates. All agar plates were incubated 18-24 hours at 35° C. in ambient air.

The mark [1] stands for this setting: compound 1 in presence of 12.5 mg/kg tigecycline, mice, murine lungs.

For `CN(C)c1cc(NC(=O)CNC(C)(C)C)c(O)c2c1C[C@H]1C[C@H]3[C@H](N(C)C)C(O)=C(C(N)=O)C(=O)[C@@]3(O)C(O)=C1C2=O` [tigecycline, reference compound], the “effect on bacterial loads” value (tigecycline 12.5 mg/kg alone, s.c. single dose 3 h post infection, lung) is given as “no effect”.

By ED50 is commonly meant the dose that gives a 50% effect, or the effect in half of the subjects. In the case of “cyclo(TWI[Dab][Orn][dDab][Dab]W[Dab][Dab]AS[dP]P) [compound 1]”, the Top level (compound 1 in presence of 12.5 mg/kg tigecycline (s.c., 3 h post infection), mice, murine lungs) is on record as 0.13 log10 CFU/ml. Besides, under setting [1], the “2 log killing dose” value worked out at 2.1 mg/kg, the Bottom level was −2.37 log10 CFU/ml, the Emax was 2.5 log10 CFU/ml and the Static dose turned out to be 0.74 mg/kg. Moreover, under “compound 1 in presence of a fixed dose of tigecycline (12.5 mg/kg), mice, s.c., murine lungs, colony counts 20 h post treatment”, the ED50 is on record as 1.33 mg/kg.
